Laboratory results taken from the supplement of paper PMC10307832.

Columns and labels:
Assay in all cases: relative viability (nuclei count vs DMSO), 5 days (fraction); higher = more cells survive
[1] = compound: O=c1cc(-c2cccc3c2Sc2ccccc2S3)oc(N2CCOCC2)c1
In short: (§1)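 Hoechst staining, done together with fixation and permeabilisation, marked nuclei for 4× imaging and MetaXpress counting. This followed 5 days without medium change after lung cancer cell lines, kept overnight at 37 °C in 1536-well plates, were pinned with five library-drug doses (not always all listed) spaced by √10 on vehicle-anchored plates. Viability is the ratio of treated-well to vehicle-well nuclei, expressed as a median across plates. Plates passed only at control CV below 25% with at least one doubling.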

[2] = compound: CCN(CC)CCCCNc1ncc2cc(-c3cc(OC)cc(OC)c3)c(NC(=O)NC(C)(C)C)nc2n1
In short: as §1

PRIMA-1MET = compound: COCC1(CO)C(=O)C2CCN1CC2 [PRIMA-1MET]
In short: as §1

Zibotentan = compound: COc1nc(C)cnc1NS(=O)(=O)c1cccnc1-c1ccc(-c2nnco2)cc1 [Zibotentan]
In short: as §1

[3] = compound: C1COCCN1C2=CC(=O)C3=C(O2)C(=CC=C3)C4=CC=CC5=C4SC6=CC=CC=C56
In short: as §1

| Cell Line | relative viability ([1]; 0.08 µM) | relative viability ([1]; 0.253 µM) | relative viability ([1]; 0.8 µM) | relative viability ([1]; 2.53 µM) | relative viability ([1]; 8 µM) | relative viability ([2]; 0.01 µM) | relative viability ([2]; 0.03162 µM) | relative viability ([2]; 0.1 µM) | relative viability ([2]; 0.3162 µM) | relative viability ([2]; 1 µM) | relative viability (PRIMA-1MET; 0.2 µM) | relative viability (PRIMA-1MET; 0.6325 µM) | relative viability (PRIMA-1MET; 2 µM) | relative viability (PRIMA-1MET; 6.325 µM) | relative viability (PRIMA-1MET; 20 µM) | relative viability (Zibotentan; 0.08 µM) | relative viability (Zibotentan; 0.253 µM) | relative viability (Zibotentan; 0.8 µM) | relative viability (Zibotentan; 2.53 µM) | relative viability ([3]; 0.01 µM) | relative viability ([3]; 0.03162 µM) | relative viability ([3]; 0.1 µM) | relative viability ([3]; 0.3162 µM) | relative viability ([3]; 1 µM) |
| --- | --- | --- | --- | --- | --- | --- | --- | --- | --- | --- | --- | --- | --- | --- | --- | --- | --- | --- | --- | --- | --- | --- | --- | --- |
| HOP-62 | 1.03 | 1.11 | 1.13 | 0.886 | 1.14 | 1.06 | 1.09 | 1.21 | 1.06 | 1.05 | 1.06 | 0.989 | 0.915 | 1.14 | 0.744 | 1.03 | 1.03 | 1.16 | 1.01 | 1.08 | 1 | 0.997 | 0.954 | 0.981 |
| IA-LM | 0.987 | 1.05 | 0.887 | 0.805 | 1.12 | 1.02 | 0.879 | 0.916 | 1.25 | 0.883 | 0.995 | 0.813 | 1.02 | 1.01 | 0.958 | 0.937 | 0.938 | 1 | 0.972 | 0.997 | 0.894 | 0.96 | 0.862 | 0.825 |
| NCI-H1563 | 0.973 | 0.988 | 0.933 | 0.989 | 0.986 | 1.03 | 0.95 | 1.04 | 0.928 | 0.729 | 1.05 | 0.968 | 0.806 | 1.06 | 0.457 | 1.04 | 0.716 | 1 | 1.09 | 0.972 | 1.01 | 0.944 | 0.975 | 0.977 |
| NCI-H647 | 0.937 | 1.2 | 1.02 | 0.855 | 1.01 | 0.94 | 1 | 1.04 | 1.1 | 0.903 | 1.11 | 0.824 | 0.783 | 1.04 | 0.762 | 0.964 | 0.83 | 0.887 | 0.993 | 0.911 | 0.918 | 0.867 | 1.05 | 0.986 |
| HCC-366 | 0.999 | 1.08 | 1.09 | 1.03 | 1.06 | 1.03 | 1.05 | 1.13 | 1.02 | 1 | 1.08 | 0.991 |  | 1.06 | 0.854 | 1.03 | 0.992 | 0.877 | 1.01 | 1.02 | 1.01 | 1.09 | 1.02 | 1.02 |
| NCI-H2087 | 0.958 | 1.15 | 1.12 | 0.835 | 1.13 | 1.02 | 0.966 | 1.16 | 1.03 | 0.942 | 0.687 | 0.883 | 0.912 | 1.17 | 0.773 | 0.934 | 1.02 | 1.16 | 1.05 | 1.11 | 1.08 | 1.01 | 0.977 | 1.05 |
